The source of these data is the RepoRT retention time repository (doi:10.1039/c4mb00346b).

Molecules are shown by their SMILES.

A short description of the data set: HILIC, Merck SeQuant ZIC-pHILIC, 150 × 2.1 mm, 5 µm, 0.1 mL/min, estimated dead time 3.3 min; A: acetonitrile; B: water + 10 mM ammonium carbonate; gradient (min/%B) 0/20 30/80. Particulars: stereoisomer not certain.
For the compound `CCC(C)C(NC(C)=O)C(=O)O` (stereo unspecified) [N-Acetyl-(iso)leucine], the LC retention time is 4.4 min.

Regarding `CC(=O)N[C@H]1C(O)O[C@H](CO)[C@@H](O)[C@@H]1O` (stereo partly drawn) [N-Acetyl-D-glucosamine], the LC retention time is 9.3 min. On to `CC(=O)NC(CCC[NH+]=C(N)N)C(=O)[O-]` (stereo unspecified) [N-Acetyl-arginine], for which the LC retention time is 12.3 min. `CC(=O)NC(CC(=O)O)C(=O)O` (stereo unspecified) [N-Acetyl-aspartate]: the LC retention time was 12.5 min.

Regarding `CC(=O)NC(CCC(=O)O)C(=O)O` (stereo unspecified) [N-Acetyl-glutamate], the LC retention time was 11.6 min. On to `CC(=O)NC(CCCN)C(=O)O` (stereo unspecified) [N-Acetyl-ornithine], for which the LC retention time was 11.1 min. Turning to `NC(=O)c1ccc[n+](C2OC(COP(=O)(O)OP(=O)(O)OCC3OC(n4cnc5c(N)ncnc54)C(O)C3O)C(O)C2O)c1` (stereo unspecified) [NAD+], the LC retention time was 11.9 min. With `NC(=O)C1=CN(C2OC(COP(=O)(O)OP(=O)(O)OCC3OC(n4cnc5c(N)ncnc54)C(O)C3O)C(O)C2O)C=CC1` (stereo unspecified) [NADH], the LC retention time is 11.1 min.

For `NC(=O)c1ccc[n+](C2OC(COP(=O)(O)OP(=O)(O)OCC3OC(n4cnc5c(N)ncnc54)C(OP(=O)(O)O)C3O)C(O)C2O)c1` (stereo unspecified) [NADP+], the LC retention time was 14.4 min. The result for `NC(=O)C1=CN(C2OC(COP(=O)(O)OP(=O)(O)OCC3OC(n4cnc5c(N)ncnc54)C(OP(=O)(O)O)C3O)C(O)C2O)C=CC1` (stereo unspecified) [NADPH] reads 14.8 min; that for `NC(=O)c1cccnc1` [Nicotinamide], 4.7 min. Take `CCCCCCCC(=O)OC(CC(=O)[O-])C[N+](C)(C)C` (stereo unspecified) [Octanoyl-carnitine]: the LC retention time is 4.1 min. Turning to `CCC(NC(=O)CCC(N)C(=O)O)C(=O)NCC(=O)O` (stereo unspecified) [Ophthalmic acid], the LC retention time is 11.2 min. Turning to `NCCCC(N)C(=O)O` (stereo unspecified) [Ornithine], the LC retention time was 20.8 min. Turning to `O=P(O)(O)OCC1OC(OP(=O)(O)OP(=O)(O)O)C(O)C1O` [PRPP (5-Phospho-alpha-D-ribose 1-diphosphate)], the LC retention time is 16.5 min.

Consider `CC(C)(CO)C(O)C(=O)NCCC(=O)O` (stereo unspecified) [Pantothenate], for which the LC retention time was 6.1 min. For `NC(Cc1ccccc1)C(=O)O` (stereo unspecified) [Phenylalanine], the LC retention time was 7.3 min. In the case of `CN(CC(=O)O)C(N)=NP(=O)(O)O` [Phosphocreatine], the LC retention time is 12.7 min. For `C=C(OP(=O)(O)O)C(=O)[O-]` [Phosphoenolpyruvate], the LC retention time was 15.1 min. Regarding `O=C(O)C1CCCN1` (stereo unspecified) [Proline], the LC retention time was 10.2 min. Consider `CCC(=O)OC(CC(=O)[O-])C[N+](C)(C)C` (stereo unspecified) [Propionyl-carnitine], for which the LC retention time was 7.2 min. `O=C(O)C1(O)CC(O)C(O)C(O)C1` (stereo unspecified) [Quinic acid]: the LC retention time was 10.4 min. For `O=C(O)c1cccnc1C(=O)O` [Quinolinic acid], the LC retention time is 12.7 min. As to `Nc1ncnc2c1ncn2C1OC(CSCCC([NH3+])C(=O)[O-])C(O)C1O` (stereo unspecified) [S-Adenosyl-homocysteine], the LC retention time is 11.2 min. The value for `C[S+](CCC(N)C(=O)[O-])CC1OC(n2cnc3c(N)ncnc32)C(O)C1O` (stereo unspecified) [S-Adenosyl-methionine] was 14.2 min; that for `CSc1ncc(CC(C(=O)[O-])[N+](C)(C)C)[nH]1` (stereo unspecified) [S-Methyl-ergothioneine] was 7.9 min; that for `Nc1ncnc2c1ncn2C1OC(CSCC(N)C(=O)O)C(O)C1O` (stereo unspecified) [S-adenosyl-cysteine] was 10.6 min. The result for `Nc1c(C(=O)NC(CC(=O)O)C(=O)O)ncn1C1OC(COP(=O)(O)O)C(O)C1O` (stereo unspecified) [SAICAR] reads 17.1 min; that for `NC(CCCCNC(CCC(=O)O)C(=O)O)C(=O)O` (stereo unspecified) [Saccharopine], 13.3 min; that for `O=C(CO)C(O)C(O)C(O)C(O)COP(=O)(O)O` (stereo unspecified) [Sedoheptulose-7-phosphate], 13.7 min.

As for `NC(CO)C(=O)O` (stereo unspecified) [Serine], the LC retention time is 13.1 min.
